Measurements published in patent US20050101668A1, “Aminotetralin derivatives as a medicament for the treatment and prevention of myocardial ischemic conditions” (Chiesi Farmaceutici S.p.A., priority 2003, published 2005).

Assays:
[1] = system: isolated perfused rat heart; experiment: Isolated perfused rat heart, low flow ischemia/reperfusion: heart mechanics (LVEDP, LVDevP, CPP); details: antagonist alone 1 μM, pre-ischemic period, mean ± S.E.M.
Description: (§1) In brief, the rats were anaesthetized with sodium pentobarbital (60 mg/kg) given by intraperitoneal injection. The chest were opened, and the heart was rapidly excised, and placed in cold (4° C.) heparinized (20 units/ml) Krebs Henseleit solution. […] Coronary perfusion pressure (CPP), left ventricular pressure (LVP) and left ventricular developed pressure (LVDevP; peak left ventricular systolic pressure minus LVEDP) were measured.
(§2) After equilibration of 15 min, hearts were paced at 300 beats/min with an electrical stimulator via two silver electrodes attached to the right atrium and an additional 30 min of perfusion was carried out (pre-ischemic period). Ischemia was induced by reducing the flow rate from 15 ml/min to 1 ml/min for 20 min (ischemic period). A normal flow rate (15 ml/min) was then restored and the perfusion was continued for another 30 min (reperfusion period).

[2] = system: isolated perfused rat heart; experiment: Creatine kinase (CK) and lactate dehydrogenase (LDH) activities in heart perfusates; details: antagonist alone 1 μM; mU/min/g w.w. vs time 20 to 50 min; mean ± S.E.M.
Description: as §1, §2
The perfusate, eluted from the heart during pre-ischemic and reperfusion periods, was collected in an ice-cooled beaker as 2.5-min samples collection. Each sample was used for the determination of CK and LDH activities by means of a spectrophotometrical method.

COC(=O)[C@H]1[C@H]2C[C@H]3c4[nH]c5ccccc5c4CCN3C[C@H]2CC[C@@H]1O [Rauwolscine, rauwolscine]
AUC related to LVEDP ([1]; mm Hg vs time 0 to 50 min): 505 ± 64 | AUC related to CPP ([1]; mm Hg vs time 20 to 50 min): 1680 ± 98 | AUC related to LVDevP ([1]; mm Hg vs time 20 to 50 min): 912 ± 64 | AUC related to CK [2]: 5584 ± 297 | AUC related to LDH [2]: 12988 ± 522
